Values of other authors in patent US7973075B2, “Kainate receptor-selective epimeric analogs of dysiherbaine” (priority 2007, dated 2011).

How the values were obtained:
mice = details: i.c.v. injection, mice; Shoji et al., 2006; cited from earlier work
GluR5 = biological target: T1, GluR5 (Rattus norvegicus, UniProt P22756); details: Tables 1-2; comparison values of neoDH and MSVIII-19 (Sanders et al., 2005); read-out: GluR5 binding affinity (displacement of [3H]kainate); cited from earlier work
T1 construct: expressed in transfected cells; HEK 293 (patch clamp)
T1 sequence (P22756 with tags, fused parts or gaps isoform P22756-2): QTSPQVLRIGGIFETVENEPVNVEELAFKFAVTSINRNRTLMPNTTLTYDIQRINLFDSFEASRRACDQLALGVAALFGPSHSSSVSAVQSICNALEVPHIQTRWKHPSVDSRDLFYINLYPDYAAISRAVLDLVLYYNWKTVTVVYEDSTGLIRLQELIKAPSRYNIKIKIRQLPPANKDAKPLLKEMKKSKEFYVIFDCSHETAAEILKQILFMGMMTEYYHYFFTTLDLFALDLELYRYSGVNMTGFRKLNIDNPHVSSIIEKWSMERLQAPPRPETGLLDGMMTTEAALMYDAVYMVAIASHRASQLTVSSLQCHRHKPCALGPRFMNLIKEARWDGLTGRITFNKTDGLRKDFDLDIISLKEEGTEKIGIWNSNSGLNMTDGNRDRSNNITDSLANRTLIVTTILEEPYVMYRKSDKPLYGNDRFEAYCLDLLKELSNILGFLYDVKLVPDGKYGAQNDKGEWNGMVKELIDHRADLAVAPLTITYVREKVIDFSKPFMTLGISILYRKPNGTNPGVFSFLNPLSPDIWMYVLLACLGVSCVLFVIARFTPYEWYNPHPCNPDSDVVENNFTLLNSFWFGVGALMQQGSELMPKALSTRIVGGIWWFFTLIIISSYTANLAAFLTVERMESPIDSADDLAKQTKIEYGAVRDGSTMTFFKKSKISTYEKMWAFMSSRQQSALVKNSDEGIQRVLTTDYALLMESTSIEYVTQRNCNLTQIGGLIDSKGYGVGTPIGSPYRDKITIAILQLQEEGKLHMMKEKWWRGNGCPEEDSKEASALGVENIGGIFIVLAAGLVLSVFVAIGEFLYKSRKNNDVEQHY

KA2 [1] = biological target: T2, KA2 (Rattus norvegicus, UniProt Q63273); details: Sanders et al., 2005; cited from earlier work
T2 construct: expressed in transfected cells; host or cells: HEK-293-T/17
T2 sequence (Q63273 15-979): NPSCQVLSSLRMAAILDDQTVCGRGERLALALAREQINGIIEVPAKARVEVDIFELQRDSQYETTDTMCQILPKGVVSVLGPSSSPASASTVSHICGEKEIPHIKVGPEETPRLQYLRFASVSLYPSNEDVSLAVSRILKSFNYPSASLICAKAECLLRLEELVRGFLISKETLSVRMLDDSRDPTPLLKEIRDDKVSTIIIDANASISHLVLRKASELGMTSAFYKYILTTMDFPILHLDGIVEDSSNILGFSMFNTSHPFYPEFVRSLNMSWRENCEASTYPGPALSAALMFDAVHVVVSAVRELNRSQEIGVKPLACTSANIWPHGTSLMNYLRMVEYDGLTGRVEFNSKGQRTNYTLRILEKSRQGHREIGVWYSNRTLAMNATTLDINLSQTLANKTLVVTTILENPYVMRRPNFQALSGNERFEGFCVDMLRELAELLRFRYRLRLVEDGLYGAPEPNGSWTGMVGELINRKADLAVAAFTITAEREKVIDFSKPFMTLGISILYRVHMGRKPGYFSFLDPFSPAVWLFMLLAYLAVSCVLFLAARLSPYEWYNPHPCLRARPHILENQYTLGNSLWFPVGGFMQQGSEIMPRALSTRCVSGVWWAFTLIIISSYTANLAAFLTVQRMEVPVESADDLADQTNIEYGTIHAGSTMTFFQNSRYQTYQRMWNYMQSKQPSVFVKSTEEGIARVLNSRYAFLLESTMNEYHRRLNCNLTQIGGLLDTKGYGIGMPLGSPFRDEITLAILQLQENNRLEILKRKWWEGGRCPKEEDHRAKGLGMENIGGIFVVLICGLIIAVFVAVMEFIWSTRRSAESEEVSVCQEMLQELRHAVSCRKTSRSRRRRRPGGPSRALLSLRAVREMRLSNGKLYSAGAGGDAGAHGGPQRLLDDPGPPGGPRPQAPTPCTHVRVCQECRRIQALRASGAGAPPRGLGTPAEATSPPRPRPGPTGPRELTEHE

KA2 [2] = biological target: T2, KA2; details: Tables 1-2; comparison values of neoDH and MSVIII-19 (Sanders et al., 2005); cited from earlier work
GluR5-2a = biological target: T3, GluR5-2a (Rattus norvegicus, UniProt P22756, DEL402-416); details: Sanders et al., 2005; cited from earlier work
T3 construct: expressed in transfected cells; host or cells: HEK-293-T/17
T3 sequence (P22756 with tags, fused parts or gaps isoform P22756-2 limits assumed, stated change not applied): as the sequence (P22756 with tags, fused parts or gaps isoform P22756-2) above

GluR6 = biological target: T4, GluR6 (Rattus norvegicus, UniProt P42260); details: Tables 1-2; comparison value of neoDH (Sanders et al., 2005); read-out: GluR6 binding affinity (displacement of [3H]kainate); cited from earlier work
T4 construct: expressed in transfected cells; HEK 293 (patch clamp)
T4 sequence (P42260 32-908): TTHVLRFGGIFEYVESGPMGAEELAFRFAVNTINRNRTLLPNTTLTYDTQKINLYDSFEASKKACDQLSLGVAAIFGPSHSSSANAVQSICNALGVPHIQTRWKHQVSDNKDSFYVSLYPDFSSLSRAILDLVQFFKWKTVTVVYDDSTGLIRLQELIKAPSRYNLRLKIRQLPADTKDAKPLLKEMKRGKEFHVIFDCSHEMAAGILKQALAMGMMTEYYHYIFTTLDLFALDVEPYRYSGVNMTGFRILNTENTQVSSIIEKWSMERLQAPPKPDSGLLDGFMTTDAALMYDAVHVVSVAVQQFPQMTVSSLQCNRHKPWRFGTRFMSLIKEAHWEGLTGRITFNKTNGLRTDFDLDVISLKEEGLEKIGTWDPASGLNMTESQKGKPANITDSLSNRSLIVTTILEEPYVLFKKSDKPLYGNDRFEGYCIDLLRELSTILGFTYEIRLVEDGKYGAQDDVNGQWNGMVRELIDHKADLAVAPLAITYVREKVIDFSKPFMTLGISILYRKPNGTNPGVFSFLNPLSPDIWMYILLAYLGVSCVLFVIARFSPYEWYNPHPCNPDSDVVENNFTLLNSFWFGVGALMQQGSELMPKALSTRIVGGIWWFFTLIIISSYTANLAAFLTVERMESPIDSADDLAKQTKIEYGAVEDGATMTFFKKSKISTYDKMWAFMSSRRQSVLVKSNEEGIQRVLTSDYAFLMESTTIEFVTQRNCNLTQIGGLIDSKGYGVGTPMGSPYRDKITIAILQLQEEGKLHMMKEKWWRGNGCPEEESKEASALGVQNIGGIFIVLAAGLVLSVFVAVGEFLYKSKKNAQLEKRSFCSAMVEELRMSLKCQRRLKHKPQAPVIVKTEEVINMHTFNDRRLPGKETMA

With `CN[C@H]1[C@H]2O[C@@](C[C@H](N)C(=O)O)(C(=O)O)C[C@H]2OC[C@H]1O` [DH, Dysiherbaine] as the molecule, how does the ED50 seizure activity (mice) read?
Its ED50 seizure activity is 13 pmol/mouse.

With `N[C@@H](C[C@]1(C(=O)O)C[C@H]2OC[C@@H](O)[C@@H](O)[C@H]2O1)C(=O)O` [neodysiherbaine, Neodysiherbaine] as the molecule, how does the Ki (GluR5) read?
Its Ki is 7.7 nM.

What about the “Ki KA2” value (KA2 [1]) of the same molecule?
The value was 600 nM.

What about the “KA2 binding affinity (displacement of [3H]kainate)” value (KA2 [2]) of the same molecule?
The value was 0.6 µM.

What about the ED50 seizure activity (mice) of the same molecule?
The ED50 seizure activity was 16 pmol/mouse.

And the Ki (GluR5-2a)?
The Ki was 7.7 nM.

And the Ki (GluR6)?
Its Ki is 33 nM.
